Data taken from patent US20240209353A1, “NADK2 INHIBITION IN CANCER AND FIBROTIC DISORDERS” (Memorial Sloan-Kettering Cancer Center, priority 2021, published 2024).
Values joined by “and” are separate entries in the source; they are usually repeats but may differ in a detail not shown here. Equal entries are not always repeated.

Test system: immunopurified mitochondria of DLD1-OMP25HA cells
Test: LC-MS metabolomic profiling, Mito-IP samples
Format: cell-based, human
Protocol: Rapid immunopurification of mitochondria was performed following the published methodology (4). In brief, cells with control or NADK2 knockout were engineered to express the HA-tagged OMP25 protein (Addgene, 83356); or in the case of FIG. 5E, parental DLD1 cells were engineered to express the HA-tagged OMP25 protein or the Myc-tagged OMP25 protein (Addgene, 83355), 30 million cells were washed and dounce homogenized in KPBS (136 mM KCl and 10 mM KH2PO4, pH 7.25). The homogenate was then cleared by centrifugation and the supernatant was applied to anti-HA beads (Thermo Fisher, 88837) and incubated with rotation for 3.5 min. The resultant beads were washed with KPBS and were eluted for different downstream analyses: Triton X-100 lysis buffer (50 mM Tris-HCl, pH 7.4, 150 mM NaCl, 1 mM EDTA, 1% (vol/vol) Triton X-100, and protease inhibitors) was used to elute mitochondria for Western blot analysis; 80:20 methanol:water containing 1.5 μM ^13C^15N labeled amino acids (Cambridge Isotope Laboratories, MSK-A2-1.2) was used to elute mitochondria for liquid chromatography-mass spectrometry (LC-MS) analysis; 80:20 methanol:water was used to elute mitochondria for NAD(H) and NADP(H) measurements; glutathione lysis buffer (see below) was used to elute mitochondria for GSH measurements.
For negative ionization mode liquid chromatography separation was achieved on an iHILIC-(P) Classic column (100 mm×2.1 mm, 5 μm particle size, HILICON). Mobile phase A was 10 mM ammonium bicarbonate in 10:90 acetonitrile:water with 5 μM medronic acid, pH 9.4 and mobile phase B was 10 mM ammonium bicarbonate in 90:10 acetonitrile:water with 5 μM medronic acid, pH 9.4). The gradient was 0 min, 95% B; 15 min, 50% B; 18 min, 50% B; 19 min, 95% B; 19.10 min, 95% B; 25.5 min, 95% B; 2 mins posttime. Other LC parameters were: flow rate: 200 μL/min; column temperature: 40° C., and injection volume was 2 μL. MS parameters were: gas temp: 300° C.; gas flow: 10 L/min; nebulizer pressure: 40 psig; sheath gas temp: 350° C.; sheath gas flow: 12 L/min; VCap: 3,000 V; fragmentor: 125 V. Data were acquired from m/z 50-1700 with active reference masses correction (m/z: 121.05087 and 922.00980 (positive mode) or m/z: 119.03632 and 980.01638 (negative mode). Peak identification and integration were done based on in-house exact mass and retention time library built from commercial standards. Data analysis and natural isotope abundance correction were performed using MassHunter Profinder software v10.0 (Agilent Technologies).
For metabolomic profiling of the Mito-IP samples, dried extracts were resuspended in 30 μL of 60:40 acetonitrile:water and an additional 7.5 μL of 100% methanol added to prevent phase separation. Samples were vortexed, incubated on ice for 20 min, and clarified by centrifugation at 20,000 g for 20 min at 4° C. LC-MS analysis was using the iHILIC-(P) Classic negative method described with 6545 Q-TOF mass spectrometer (Agilent Technologies). Whole cell extracts were analyzed in parallel and data analysis was performed using MassHunter Profinder v10.0 software (Agilent Technologies). Metabolite identifications reported were based on either (a) exact mass and retention times matched to authentic standards (denoted as RT in Tables 1A-1G) or (b) exact mass and MS2 spectra match using SIRIUS software (denoted as MS2 in Tables 1A-1G) (https://bio.informatik.uni-jena.de/software/sirius/). Metabolites were considered to be mitochondrial if the average peak area measured in anti-HA Mito-IPs from HA-tagged OMP25 cells was at least 1.5-fold more than in anti-HA Mito-IPs from the control cell expressing Myc-tagged OMP25 (scc Tables 1A-1G; FC>1.5 for [OMP25HA sgCtrl MitoIP vs. OMP25Myc MitoIP]).

[1] = DLD1-OMP25HA sgCtrl + Piericidin MitoIP, 5 μM 2 hours, rep01-rep03

C/C=C(\C)[C@H](O)[C@H](C)/C=C(C)/C=C/C/C(C)=C/Cc1nc(OC)c(OC)c(O)c1C [piericidin]
2-aminoadipate level [1]: 62966 and 65899 and 79200 | 3-hydroxy-3-methylglutarate level [1]: 65452 and 77263 and 90857 | 3-hydroxyhexadecanoate level [1]: 154313 and 165893 and 273073 | alpha-ketoglutarate level [1]: 36956 and 33481 and 64213 | carbamoyl aspartate level [1]: 61946 and 44834 and 50496 | citrate level [1]: 2652773 and 2956510 and 3197992 | dodecanoate level [1]: 117632035 and 108567664 and 182339246 | galactonic acid level [1]: 79663 and 109571 and 76436 | glutamine level [1]: 58654 and 57894 and 67465 | glutathione, reduced (GSH) level [1]: 5666886 and 8127441 and 4704089 | lactate level [1]: 2355878 and 2582709 and 1383509 | malate level [1]: 78861 and 87997 and 101969 | methylmalonate level [1]: 49637 and 60988 and 87945 | methylthioribulose 1-phosphate level [1]: 78919 and 79663 and 140471 | nicotinamide adenine dinucleotide, reduced (NADH) level [1]: 3526961 and 3705811 and 4542289 | oleate level [1]: 3976796 and 4283346 and 4070066 | palmitate level [1]: 58619197 and 59278003 and 34887756 | pentadecanoic acid level [1]: 988055 and 823203 and 616849 | phenylacetate level [1]: 206078 and 155618 and 258772 | phosphoglycolic acid level [1]: 12625 and 17645 and 24712 | succinate level [1]: 32755 and 39006 and 43999 | taurine level [1]: 3028424 and 3328577 and 3010797 | uridine 5′-monophosphate (UMP) level [1]: 149496 and 116561 and 209899 | glutamate and NADH levels in the mitochondria (sgCtrl DLD1-OMP25HA cells, 5 μM piericidin for 2 hours before Mito-IP): increased
